Results: PMC8319603, “Developing C2-Aroyl Indoles as Novel Inhibitors of IDO1 and Understanding Their Mechanism of Inhibition via Mass Spectroscopy, QM/MM Calculations and Molecular Dynamics Simulation” (Frontiers in Chemistry, 2021)
pIC50: −log10 of the molar value. Values after ≈ are worked out from the molar mass of the structure shown. Values joined by “and” are separate entries in the source; they are usually repeats but may differ in a detail not shown here. Identical values can stand only once. Like-named read-outs stand apart in the source and are kept apart here.

Key:
[1] = molecular target: T1, recombinant protein of human TDO2 enzyme (Homo sapiens, UniProt P48775); assay: TDO2 enzymatic assay in vitro (kynurenine formation, absorbance 492 nm); assay type: biochemical; conditions: read-out: IC50 against TDO2
T1 construct: purchased Biovision CSB-YP023351HU
Method: The recombinant human IDO/TDO protein were purchased from Biovision (Catalog no.: P1096 human recombinant IDO1 and CSB-YP023351HU human recombinant TDO2). All the other HPLC grade solvent were purchased from Merck Pvt. Ltd. The IDO/TDO assays were performed according to the reported procedures.1 and 2, the details of which is mentioned in the SI.
20 µL of IDO1/TDO2 protein (1µg/ml concentration) was added and incubates for 10 min. After that 20 µL of 2 mM L-tryptophan was added and then treated with different test compounds concentration […]
The plate was then sealed well for 2hr incubation process at 37°C. After incubation, 40 µL of 30% TCA solution was added and again incubated for 15 min at 60 °C, the samples were centrifuged for 15 min at 13000 rpm at 4 °C. The 100 µL of supernatant was transferred in fresh 96 well plate and treated with 100 µL of freshly prepared 2% Ehlrich reagent which was then analyzed by absorbance plate reader at 492 nm to measure the extent of kynurenine formation. The DMSO content in the sample was 0.005 %. The final concentration of the compound in deep well plate was 5 µM. The IC50 values were calculated in triplicate by using GraphPadPrism […]
1. Water was substituted with L-tryphtophan
2. Water was substituted with L-tryhtophan and rhIDO/ rhTDO protein.
A = IDO activity in presence of inhibitor

[2] = molecular target: T2, hIDO1 (ferric-IDO1 and deoxy ferrous-IDO1) (Homo sapiens, UniProt P14902); assay: UV-Vis absorption study of ligand binding to IDO1 (Soret band); conditions: ligand 25 µM, IDO1 1 µM, pH 6.5; 414 nm without ligand
T2 construct: purchased Biovision P1096
Method: All the measurements of binding of compound and enzyme were recorded at room temperature using an Agilent Cary 8454 UV-Vis diode array spectrophotometer with 1 cm light path. The experiments were performed in 50 mM potassium phosphate buffer pH- 6.5 with IDO1 protein concentration of 1 µM and compound concentration of 25 µM was incubate for 3 h at 37°C. The deoxy-form of protein was prepared by pre-purged with nitrogen gas and adding […] (∼5 fold excess) in protein with potassium phosphate system.

Kinetic solubility = assay type: physicochemical; conditions: for solubility kinetic at 18 h: phosphate buffered saline, aqueous buffer, kinetic from dmso stock, at 1 mg/ml in phosphate buffer at pH 7.4, read-out: Kinetic solubility of the compounds
Text: (§1) For the DMPK studies of the compound 8a-d we used rat as well as human plasmas. Rat plasma was purchased from Hylasco Biotechnology Pvt. Ltd.™ Hyderabad, India. We have not performed any in vivo experiments for this manuscript neither for animals nor for humans. […] Also please note the blood plasma was obtained from the blood of Dr Srinivas R Maddi, who donated it and is the co-author of this article. The DMPK studies were supplemented by kinetic solubility, Log p and Log D determinations, PAMPA permeability, Metabolic and Plasma stability in rat and human, and finally the plasma folding in rat and human. A thorough discussion of each step is mentioned in the supplementary information. […]
Kinetic solubility: Solubility of the compounds was dete rmined by incubating the compound at 500
µM concentration in phosphate buffer saline, pH7.4 for 18 hours with constant vortex at 500 rpm.
After incubation period, samples were centrifuged and supernatant was injected into HPLC to
determine the solubility. […]

[3] = Log P determination (octanol/water); assay type: physicochemical
Text: as §1
Octanol and buffer layers were analysed by HPLC -UV by
adjusting the needle height for each Octanol and buffer and the amount of compound distributed i nto

PAMPA permeability = assay type: in vitro ADME; conditions: for Papp at 5 h, 100 µM: phosphate buffer at pH 7.4
Text: as §1
PAMPA permeability: PAMPA permeability was determined by addition of the compounds to the donor wells at 100µM concentration in a total volume of 300µL in triplicates. The acceptor wells were filled with 200µL of phosphate buffered saline, pH 7.4, while maintaining 5% DMSO concentration on both sides. The plates were sandwiched and incubated for 5hours at room temperature. After incubation, 150µL of the sample from both donor and receiver wells was collected and centrifuged at […]
4000rpm for 20 minutes. […]

Stability in rat plasma = assay type: in vitro ADME
Text: as §1
Stability in rat and human plasma: Plasma stability is defined as the percentage of parent compound lost over time. The frozen plasma was thawed at room temperature and centrifuged at 1400 rpm 4 ℃, for 15 minutes. Approximately 90% of the clear supernatant fraction was transferred to a separate tube and was used for assay. The incubation mixtures consisted of human and rat palsma and compound (1 μM) or positive control (propanthelin, 1 μM) and incubated for 120 min at 37℃ in shaker with 500 rpm. All reactions were terminated using 200 μL of ice-cold acetonitrile containing internal standard (150 ng/mL of telmisartan) at 0, 15, 30, 60 and 120 min and centrifuged at 4000 rpm (Eppendorf, Germany) for 20min. The supernatants thus obtained were analyzed on LC-MS/MS to monitor the disappearance of compound. […]

[4] = Plasma protein binding in human plasma (rapid equilibrium dialysis); assay type: in vitro ADME; conditions: pH 7.4, human plasma
Text: as §1
Plasma protein binding in rat and human plasma: To evaluate the ability of compound to bind the plasma proteins, the most common approach of plasma protein binding using rapid equilibrium dialysis device ( RED inserts) used. Compounds were tested at a final concentration of 10 μM in mouse, rat and human plasma. An aliquot of 500 μL plasma containing compound 3k was added in first half (plasma side) of the well of RED device. An aliquot of 300 μL of 100 mM sodium phosphate buffer pH 7.4 was added in the second half (buffer side) of the Insert. The plate containing plasma and […]

[5] = Metabolic stability in human liver microsomes; assay type: in vitro ADME
Method: (§2) Metabolic stability in mouse, rat and human liver microsomes: Metabolic stability was defined as the percentage of parent compound lost over time in the presence of a metabolically active test system.
(§3) The incubation mixtures consisted of liver microsomes 1.0 mg microsomal protein /mL , compound 1 uM or positive control verapamil, 1 uM . The reactions were initiated by adding 1 mM NADPH.
(§4) Reactions without NADPH at 0 and 60 min were also incubated to rule out non-NADPH metabolism or chemical instability in the incubation buffer. All reactions were terminated using 200 uL of ice-cold acetonitrile containing internal standard 200 ng/mL of telmisartan at 0, 5, 15, 30 and 60 min. The vials were centrifuged at 4000 rpm for 20 min. The supernatants thus obtained were analyzed on LC-MS/MS to monitor the disappearance of compound. […]

[6] = Metabolic stability in rat liver microsomes; assay type: in vitro ADME; conditions: for Clearance in animal microsomes: animal microsomal data among rat, dog and monkey; for Rat liver microsomal stability % QH (hepatic extraction ratio): rat liver microsomes
Method: as §2, §3, §4

[7] = Metabolic stability in dog liver microsomes; assay type: in vitro ADME
[8] = Metabolic stability in monkey liver microsomes; assay type: in vitro ADME
[9] = 10 μM, read-out: Human plasma protein binding %Ge bound (converted)
[10] = 10 μM, read-out: Human plasma protein binding %Ge free
[11] = read-out: Fraction unbound in human plasma

T2 sequence (P14902 whole entry): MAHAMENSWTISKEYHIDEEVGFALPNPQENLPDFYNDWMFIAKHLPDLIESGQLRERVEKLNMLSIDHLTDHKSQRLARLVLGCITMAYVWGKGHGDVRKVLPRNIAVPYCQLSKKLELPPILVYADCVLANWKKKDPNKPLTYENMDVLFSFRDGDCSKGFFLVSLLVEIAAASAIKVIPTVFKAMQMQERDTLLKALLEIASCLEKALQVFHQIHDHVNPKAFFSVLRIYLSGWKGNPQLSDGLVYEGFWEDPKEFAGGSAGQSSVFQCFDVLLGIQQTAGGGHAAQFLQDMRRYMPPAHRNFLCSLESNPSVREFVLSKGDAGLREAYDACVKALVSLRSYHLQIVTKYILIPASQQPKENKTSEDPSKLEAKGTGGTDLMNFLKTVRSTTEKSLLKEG
T1 sequence (P48775 whole entry): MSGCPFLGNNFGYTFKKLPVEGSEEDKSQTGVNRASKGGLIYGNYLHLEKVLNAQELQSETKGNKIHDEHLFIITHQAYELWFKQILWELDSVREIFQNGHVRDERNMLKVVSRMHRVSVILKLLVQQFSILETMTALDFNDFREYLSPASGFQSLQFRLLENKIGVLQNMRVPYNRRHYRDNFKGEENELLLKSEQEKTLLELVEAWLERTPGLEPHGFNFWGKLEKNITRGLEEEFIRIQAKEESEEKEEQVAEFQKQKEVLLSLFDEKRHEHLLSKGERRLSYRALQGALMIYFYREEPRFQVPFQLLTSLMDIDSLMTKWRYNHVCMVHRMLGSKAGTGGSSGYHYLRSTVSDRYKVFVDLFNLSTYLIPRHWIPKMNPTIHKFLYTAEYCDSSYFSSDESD

pIC50 [1] | Soret band of deoxy ferrous-IDO1 in presence of ligand [2] | Solubility (Kinetic solubility) | solubility kinetic at 18 h (Kinetic solubility) [µg/mL] | logP [3] | Permeability (PAMPA permeability) | Papp at 5 h, 100 µM (PAMPA permeability) [×10⁻⁶ cm/s] | Rat plasma stability %Ge remaining after 120 min (Stability in rat plasma) [%] | fraction unbound at 10 μM [4, 9] | fraction unbound at 10 μM [4, 10] | fraction unbound at 10 μM [4, 11] | Human liver microsomal % QH (hepatic extraction ratio) [5] | Metabolic stability in liver microsomes [5] | Clearance in animal microsomes [6] | Rat liver microsomal stability % QH (hepatic extraction ratio) [6] [%] | Dog liver microsomal stability % QH (hepatic extraction ratio) [7] [%] | Monkey liver microsomal stability % QH (hepatic extraction ratio) [8] [%] | SMILES
4.77 | 407 nm | very good | 67.4 (≈ 209 µM) | 2.88 | very good | 32.3 | 96.3 | 0.0213 | 0.0213 | 0.021 | 58% | moderately stable | low to moderate clearance | 14.9 | 67 | 96 | COC(=O)NCCc1c(C(=O)c2ccccc2)[nH]c2ccccc12 [8e]
5.04 | 407 nm | very good | 56.9 (≈ 162 µM) | 2.67 | very good | 15.4 | 91.3 | 0.0952 | 0.0952 | 0.095 | 33% and 32.6% | moderately stable | low to moderate clearance | 2.2 | 39 | 74 | CC(=O)NCCc1c(C(=O)c2ccc([N+](=O)[O-])cc2)[nH]c2ccccc12 [8d]
5.16 | 407 nm and 430 nm | very good | 64.1 (≈ 145 µM) | > 3.5 | very good | 6.8 | 84.5 | 0.0064 | 0.0064 | 0.0064 | 73.9% | unstable |  | 12.6 | 69 | 97 | CC(=O)NCCc1c(C(=O)c2cc(C(F)(F)F)cc(C(F)(F)F)c2)[nH]c2ccccc12 [8a]
